Results: patent US20240352145A1, “EFFICACY OF ANTI-TROP-2-SN-38 ANTIBODY DRUG CONJUGATES FOR THERAPY OF TUMORS RELAPSED/REFRACTORY TO CHECKPOINT INHIBITORS” (Immunomedics, Inc., priority 2016, published 2024)

What was measured:
rhTrop-2/TACSTD2 = molecular target: T1, rhTrop-2/TACSTD2 (Homo sapiens, UniProt P09758); test: Surface plasmon resonance (BIACORE), Trop-2; format: binding; settings: for Kd: low-density Trop-2 chip, three independent runs, read-out: binding affinity (KD)
T1 construct: purchased Sino Biological, Inc
T1 sequence (P09758 27-323): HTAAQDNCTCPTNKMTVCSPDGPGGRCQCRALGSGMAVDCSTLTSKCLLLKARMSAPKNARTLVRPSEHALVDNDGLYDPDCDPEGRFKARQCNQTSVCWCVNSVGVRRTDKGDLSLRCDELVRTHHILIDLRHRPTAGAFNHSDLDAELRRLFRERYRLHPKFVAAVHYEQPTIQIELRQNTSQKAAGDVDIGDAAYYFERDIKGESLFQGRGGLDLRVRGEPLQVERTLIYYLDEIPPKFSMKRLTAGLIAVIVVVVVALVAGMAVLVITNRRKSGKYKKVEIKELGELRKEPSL
Text: (§1) Surface Plasmon Resonance Binding (BIACORE)—Briefly, rhTrop-2/TACSTD2 (Sino Biological, Inc.) or recombinant human neonatal receptor (FcRn), produced as described (Wang et al., 2011, Drug Metab Dispos 39:1469-77), was immobilized with an amine coupling kit (GE Healthcare; Cat. No. BR-1000-50) on a CM5 sensor chip (GE Healthcare; Cat. #BR-1000-12) following manufacturer's instructions for a low-density chip. […] Each set would make up a separate run on the BIACORE (BIACORE-X; Biacore Inc., Piscataway, NJ) and data were analyzed using BIAevaluation Software (Biacore Inc., v4.1). Analysis was performed with a 1:1 (Langmuir) Binding Model and Fit, using all five concentration points for each sample run to determine the best fit (lowest χ^2 value). The KDvalue was calculated using the formula KD=kd1/ka1, where kd1 is the dissociation rate-constant and ka1 is the association-rate constant.

[1] = tested on: SK-MES-1 human squamous cell lung tumors; test: SK-MES-1 xenograft therapy; format: in vivo; settings: for tumor volume (TV): 0.4 mg/kg, 28 days
Method: (§2) NCr female athymic nude (nu/nu) mice, 4 to 8 weeks old, and male Swiss-Webster mice, 10 weeks old, were purchased from Taconic Farms. […] Tumor volume (TV) was determined by measurements in 2 dimensions using calipers, with volumes defined as: L×w^2/2, where L is the longest dimension of the tumor and w is the shortest. […] This dosing frequency reflected a consideration of the conjugate's serum half-life in vitro, to allow a more continuous exposure to the ADC.
(§3) Statistics—Growth curves are shown as percent change in initial TV over time. Statistical analysis of tumor growth was based on area under the curve (AUC). Profiles of individual tumor growth were obtained through linear-curve modeling. An f-test was employed to determine equality of variance between groups before statistical analysis of growth curves. A 2-tailed t-test was used to assess statistical significance between the various treatment groups and controls, except for the saline control, where a 1-tailed t-test was used (significance at P≤0.05). Statistical comparisons of AUC were performed only up to the time that the first animal within a group was euthanized due to progression.

COLO 205 tumors = test: COLO 205 xenograft therapy; format: in vivo
Method: as §2, §3

p21^Waf1/Cip1 and p53 [2] = test: Signaling events (p21Waf1/Cip1, p53) in BxPC-3; format: cell-based, human
Text: (§4) Our initial studies examined the expression of 2 proteins involved in early signaling events (p21^Waf1/Cip1 and p53) and 1 late apoptotic event [cleavage of poly-ADP-ribose polymerase (PARP)] in vitro (not shown).

Trop-2 = molecular target: T2, Trop-2 (Homo sapiens, UniProt P09758); test: In vitro cell binding, multiple cell lines; parameters: endogenous in cells; host or cells: human cancer cell lines (ATCC)
T2 sequence (P09758 27-323): T1 sequence (P09758 27-323)
Method: In Vitro Cell Binding—LumiGLO Chemiluminescent Substrate System (KPL, Gaithersberg, MD) was used to detect antibody binding to cells. Briefly, cells were plated into a 96 black-well, flat-clear-bottom plate overnight. Antibodies were serially diluted 1:2 and added in triplicate, yielding a concentration range from 0.03 to 66.7 nM. After incubating for 1 h at 4° C., the media was removed and the cells washed with fresh cold media followed by the addition of a 1:20,000 dilution of goat-antihuman horseradish peroxidase-conjugated secondary antibody (Jackson Immunoresearch, West Grove, PA) for 1 h at 4° C. The plates were again washed before the addition of the LumiGLO reagent. Plates were read for luminescence using an Envision plate reader (Perkin Elmer, Boston MA). Data were analyzed by non-linear regression to determine the equilibrium dissociation constant (KD). Statistical comparisons of KD-values were made with Prism GraphPad Software (v4.03) (Advanced Graphics Software, Inc.; Encinitas, CA) using an F-Test on the best-fit curves for the data. Significance was set at P<0.05.

CDC activity = format: cell-based
[3] = mouse, in vivo
Text: Pharmacokinetics—Naive female NCr nude (nu/nu) mice, 8-10 weeks old, were purchased from Taconic Farms (Germantown, NY). […] ELISA was utilized to determine serum concentrations of total hRS7 IgG by competing for the binding to an anti-hRS7 IgG idiotype antibody with a horseradish peroxidase conjugate of hRS7. […] Pharmacokinetic (PK) parameters were computed by noncompartmental analysis using Phoenix WinNonlin software (version 6.3; Pharsight Corp., Mountainview, CA).

Capan-1 = test: Combination 90Y-hPAM4 RAIT + ADC, Capan-1 xenograft; format: in vivo, mouse
Text: Objective responses occurred in most animals, but they were more robust in both of the combination groups as compared to each agent given alone. […] These studies provide the first evidence that combined radioimmunotherapy and ADC enhances efficacy at safe doses.

[4] = molecular target: T3, recombinant human neonatal receptor (FcRn) (Homo sapiens, UniProt P55899); test: Surface plasmon resonance (BIACORE), FcRn; format: binding; settings: low-density FcRn chip, three independent runs
T3 construct: made in house
Text: as §1

BxPC-3 = test: ADCC activity of hRS7-ADC conjugates; format: cell-based, human; settings: 33.3 nM; PBMC effector to target ratio 100:1
Text: PBMCs were purified from blood purchased from the Blood Center of New Jersey. A Trop-2-positive human pancreatic adenocarcinoma cell line (BxPC-3) was used as the target cell line with an effector to target ratio of 100:1.

p21^Waf1/Cip1 and p53 [5] = test: Signaling events (p21Waf1/Cip1, p53) in Calu-3; format: cell-based, human
Text: as §4

MDA-MB-468 = test: ADCC LDH-release, MDA-MB-468; format: cell-based, human; settings: for specific lysis (ADCC): MDA-MB-468, 33.3 nM, E:T 50:1, 4 h
Method: The next day, peripheral blood mononuclear effector cells (PBMCs) were freshly isolated from a donor and added to assigned wells on the reaction plate at an E:T ratio of 50:1. Acquisition of human PBMCs was done under the approval of the New England Institutional Review Board (Newton, MA). […] One set of wells received ADCC assay medium alone for background control and another set of wells received cells alone plus TritonX100 for maximum cells lysis control. The plate was incubated for 4 h at 37° C. After 4 h, target cell lysis was assessed by a homogenous fluorometric LDH release assay (Cyto Tox-One Homogenous Membrane Integrity Assay; Promega, Cat. G7891).
Data were analyzed by Microsoft Excel. Percent specific lysis was calculated as follows:
where: • Experimental: effector+target cells+antibody • Effector+Target Control: effector+target cells • Max. Lysis: target cells+Triton-X100 • Target Control: target cells only

T3 sequence (P55899 24-297 limits assumed): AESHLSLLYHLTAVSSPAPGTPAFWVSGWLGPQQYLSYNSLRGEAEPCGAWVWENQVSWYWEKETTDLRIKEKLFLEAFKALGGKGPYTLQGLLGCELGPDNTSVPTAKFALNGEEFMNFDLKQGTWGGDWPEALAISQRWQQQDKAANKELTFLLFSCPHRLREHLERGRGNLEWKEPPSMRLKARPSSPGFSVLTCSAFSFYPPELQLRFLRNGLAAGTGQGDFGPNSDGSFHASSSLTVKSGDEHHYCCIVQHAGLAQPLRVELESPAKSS
T3 sequence (P61769 21-119 partner): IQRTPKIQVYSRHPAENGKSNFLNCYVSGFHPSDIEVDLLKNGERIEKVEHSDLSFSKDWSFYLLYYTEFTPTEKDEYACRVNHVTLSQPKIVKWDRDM

Substance | improvement in KD vs naked hRS7 (rhTrop-2/TACSTD2; BIACORE) [fold] | Kd (rhTrop-2/TACSTD2) [nM] | tumor volume (TV) [1] [cm^3] | tolerability, body weight loss ([1]; in all murine studies) | tumor growth vs untreated and hA20-CL2A-SN-38 (COLO 205 tumors; 0.4 mg/kg SN-38 twice weekly x 4 weeks) | exposure time at which p53 upregulation is evident (p21^Waf1/Cip1 and p53 [2]) [h] | KD (Trop-2) | CDC activity (CDC activity) | MRT of carrier hRS7 antibody [3] [h] | alpha half-life of hRS7 IgG ([3]; iv, 200 ug) | beta half-life of hRS7 IgG ([3]; iv, 200 ug) [h] | half-life of intact conjugate ([3]; iv, 200 ug) [h] | tumor-free mice after 20 weeks (Capan-1; 75 μCi 90Y-hPAM4 level, ADC alone, or their combination, n=10) | Kd [4] [nM] | specific lysis (ADCC) (BxPC-3) | exposure time at which p53 upregulation is evident (p21^Waf1/Cip1 and p53 [5]) [h] | specific lysis (ADCC) (MDA-MB-468) [%] | loss of effector function (ADCC) (MDA-MB-468; three different cell lines) | tumor volume (TV) (COLO 205 tumors; 0.4 mg/kg, q4dx8, 28-day treatment period) [cm^3] | anti-tumor activity of unconjugated antibodies (Capan-1; given alone)
IMMU-132 | 2 | 0.26 ± 0.14 | 0.36±0.25 | well tolerated in terms of body weight loss | significantly inhibited tumor growth | ≤ 24 | sub-nanomolar range | no CDC activity | ~300 | approximately 3 h | ~200 | 11 | 1 of 10 | 192 ± 47.6 | no difference between hRS7-NEM and sacituzumab govitecan | ≤ 24 | 8.6±2.6 | 60-70% | – | –
hRS7 IgG | – | 0.51 ± 0.04 | 1.30±1.08 | – | – | 48 | sub-nanomolar range | no CDC activity | – | approximately 3 h | ~200 | – | – | 92.4 ± 5.7 | 8.5% | 48 | 29.8±2.6 | – | 1.77±0.93 | Neither unconjugated hPAM4 nor hRS7 antibodies had anti-tumor activity
